Data on 32 compounds can be found in patent US6426229B1, “Chelating agent and detergent comprising the same” (Mitsubishi Rayon Co., Ltd., priority 1995, dated 2002).

Series [1] is described as follows: Storage of aqueous solution or slurry for 60 days: HPLC analysis of components and appearance. In kind it is physicochemical.
The nature of series [2]: Compression strength (hardening property) of powder stored under load for 2 months. In kind it is physicochemical. The note with it: 20-30° C., relative humidity 40-70%. The method, boiled down:
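A 500 g powder sample was levelled to 20 cm×20 cm in a polyethylene bag, air expelled, sealed, then enclosed in a sealed kraft bag at 20-30° C. and 40-70% relative humidity. The bag lay flat under a loaded plate for 2 months at those conditions, after which 4 cm×4 cm×2 cm test pieces were cut out to assess hardening by compression strength.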

Where [3] appears, read: Load 300 (table head [Kg]; text 300 g/cm^2).
The mark [4] stands for this setting: Load 100 (table head [Kg]; text 100 g/cm^2).
Setting [5] is: Load 200 (table head [Kg]; text 200 g/cm^2).

Consider `O=C([O-])CN[C@@H](CC(=O)[O-])C(=O)[O-].[Na+].[Na+].[Na+]` [compound 34, trisodium salt of (S)-aspartic acid-N-monoacetic acid, reference compound], for which, in series [1] (keeping temperature 75° C.), the “Appearance after kept for 60 days” value was “Brown aquequs solution” and the “Content of the compound of the formula [I] in aqueous solution after kept for 60 days” value (“Content of the compound of the formula” below) was 30.6 wt. %.

In the case of `O=C([O-])CN[C@@H](CC(=O)[O-])C(=O)[O-].[Na+].[Na+].[Na+]` [Example 93, trisodium salt of (S)-aspartic acid-N-monoacetic acid], in series [1] (keeping temperature 65° C.), the “Appearance after kept for 60 days” value is “Light yellow slurry” and the “Content of the compound of the formula” value was 63.7 wt. %.

Consider `O=C([O-])CN[C@@H](CC(=O)[O-])C(=O)[O-].[Na+].[Na+].[Na+]` [Example 89, trisodium salt of (S)-aspartic acid-N-monoacetic acid], for which, in series [1] (keeping temperature 75° C.), the “Appearance after kept for 60 days” value was “Colorless transparent aqueous solution” and the “Content of the compound of the formula” value amounted to 49.4 wt. %.

Turning to `O=C([O-])C[C@H](NCC(O)CN[C@@H](CC(=O)[O-])C(=O)[O-])C(=O)[O-].[Cu+2].[Na+].[Na+]` [compound 52, copper disodium (S,S)-2-hydroxy-1,3-propanediamine-N,N′-disuccinate, reference compound], in series [1] (keeping temperature 75° C.), the “Appearance after kept for 60 days” value was “Dark blue transparent aqueous solution” and the “Content of the compound of the formula” value was 38.7 wt. %.

Take `O=C([O-])CN(CC(=O)[O-])c1ccccc1C(=O)[O-].[Na+].[Na+].[Na+]` [Example 105, trisodium salt of anthranilic acid-N,N-diacetic acid]: in series [1] (keeping temperature 75° C.), the “Appearance after kept for 60 days” value is given as “Colorless transparent aqueous solution” and the “Content of the compound of the formula” value is listed as 49.8 wt. %.

With `O=C([O-])CN(CC(=O)[O-])c1ccccc1C(=O)[O-].[Fe+3]` [Example 110, iron salt of anthranilic acid-N,N-diacetic acid], in series [1] (keeping temperature 40° C.), the “Appearance after kept for 60 days” value is reported as “Reddish brown aqueous solution” and the “Content of the compound of the formula” value came out at 49.3 wt. %.

Consider `O=C([O-])C[C@@H](C(=O)[O-])N(CC(=O)[O-])CC(=O)[O-].[Na+].[Na+].[Na+].[Na+]` [Example 94, tetrasodium salt of (S)-aspartic acid-N,N-diacetic acid], for which, in series [1] (keeping temperature 65° C.), the “Appearance after kept for 60 days” value is listed as “Light yellow slurry” and the “Content of the compound of the formula” value is 64.5 wt. %.

`O=C([O-])CC(NCCNC(CC(=O)[O-])C(=O)[O-])C(=O)[O-].[Na+].[Na+].[Na+].[Na+]` (centres unmarked) [Example 122, tetrasodium ethylenediamine-N,N′-disuccinate]: in series [1] (keeping temperature 40° C.), the “Appearance after kept for 60 days” value was “White slurry” and the “Content of the compound of the formula” value worked out at 74.1 wt. %.

As to `O=C([O-])CN[C@@H](CC(=O)[O-])C(=O)[O-].[Na+].[Na+].[Na+]` [Example 97, trisodium salt of (S)-aspartic acid-N-monoacetic acid], in series [1] (keeping temperature 70° C.), the “Appearance after kept for 60 days” value is reported as “White slurry” and the “Content of the compound of the formula” value came out at 76.8 wt. %.

In the case of `O=C([O-])C[C@H](NCCCN[C@@H](CC(=O)[O-])C(=O)[O-])C(=O)[O-].[Na+].[Na+].[Na+].[Na+]` [Example 120, tetrasodium (S,S)-1,3-propanediamine-N,N′-disuccinate], in series [1] (keeping temperature 70° C.), the “Appearance after kept for 60 days” value is on record as “White slurry” and the “Content of the compound of the formula” value is 78.4 wt. %.

For `O=C([O-])CC(NCCCNC(CC(=O)[O-])C(=O)[O-])C(=O)[O-].[Na+].[Na+].[Na+].[Na+]` (centres unmarked) [Example 123, tetrasodium 1,3-propanediamine-N,N′-disuccinate], in series [1] (keeping temperature 40° C.), the “Appearance after kept for 60 days” value was “White slurry” and the “Content of the compound of the formula” value is listed as 74.1 wt. %.

As for `O=C([O-])C[C@@H](C(=O)[O-])N(CC(=O)[O-])CC(=O)[O-].[Na+].[Na+].[Na+].[Na+]` [Example 98, tetrasodium salt of (S)-aspartic acid-N,N-diacetic acid], in series [1] (keeping temperature 70° C.), the “Appearance after kept for 60 days” value was “White slurry” and the “Content of the compound of the formula” value is 78.5 wt. %.

Consider `O=C([O-])CN(CCS(=O)(=O)[O-])CC(=O)[O-].[Na+].[Na+].[Na+]` [Example 103, trisodium salt of taurine-N,N-diacetic acid], for which, in series [1] (keeping temperature 75° C.), the “Appearance after kept for 60 days” value was “Colorless transparent aqueous solution” and the “Content of the compound of the formula” value worked out at 49.4 wt. %.

For `O=C([O-])CN(CCS(=O)(=O)[O-])CC(=O)[O-].[Na+].[Na+].[Na+]` [Example 106, trisodium salt of taurine-N,N-diacetic acid], in series [1] (keeping temperature 65° C.), the “Appearance after kept for 60 days” value is recorded as “Light yellow slurry” and the “Content of the compound of the formula” value stood at 63.7 wt. %.

For `O=C([O-])CN(CCS(=O)(=O)[O-])CC(=O)[O-].[Na+].[Na+].[Na+]` [Example 108, trisodium salt of taurine-N,N-diacetic acid], in series [1] (keeping temperature 70° C.), the “Appearance after kept for 60 days” value is recorded as “White slurry” and the “Content of the compound of the formula” value came out at 76.9 wt. %.

As to `O=C([O-])CN[C@@H](CC(=O)[O-])C(=O)[O-].[Na+].[Na+].[Na+]` [compound 35, trisodium salt of (S)-aspartic acid-N-monoacetic acid, reference compound], in series [1] (keeping temperature 60° C.), the “Appearance after kept for 60 days” value is listed as “Brown slurry” and the “Content of the compound of the formula” value was 47.3 wt. %.

`O=C([O-])CCN[C@@H](CC(=O)[O-])C(=O)[O-].[Na+].[Na+].[Na+]` [Example 91, trisodium salt of (S)-aspartic acid-N-monopropionic acid]: in series [1] (keeping temperature 75° C.), the “Appearance after kept for 60 days” value is “Colorless transparent aqueous solution” and the “Content of the compound of the formula” value was 49.8 wt. %.

Regarding `O=C([O-])C[C@H](NCC(O)CN[C@@H](CC(=O)[O-])C(=O)[O-])C(=O)[O-].[Na+].[Na+].[Na+].[Na+]` [Example 116, tetrasodium (S,S)-2-hydroxy-1,3-propanediamine-N,N′-disuccinate], in series [1] (keeping temperature 75° C.), the “Appearance after kept for 60 days” value was “Colorless transparent aqueous solution” and the “Content of the compound of the formula” value stood at 44.7 wt. %.

As for `O=C(O)C[C@H](NCC(O)CN[C@@H](CC(=O)O)C(=O)O)C(=O)O` [Example 75, (S,S)-2-hydroxy-1,3-propanediaminedisuccinic acid], the “Compression strength after stored for 2 months” value (“Compression strength” below) in series [2] (setting [3]) came to 1.0 Kg/cm^2.

Turning to `O=C(O)C[C@H](NCC(O)CN[C@@H](CC(=O)O)C(=O)O)C(=O)O` [compound 25, (S,S)-2-hydroxy-1,3-propanediaminedisuccinic acid, reference compound], in series [2] (setting [4]), the “Compression strength” value came to 2.5 Kg/cm^2.

As to `O=C([O-])CCN[C@@H](CC(=O)[O-])C(=O)[O-].[Na+].[Na+].[Na+]` [Example 6, trisodium salt of (S)-aspartic acid-N-monopropionic acid], the “Compression strength” value in series [2] (setting [4]) is 1.2 Kg/cm^2.

With `O=C(O)C[C@H](NCCN[C@@H](CC(=O)O)C(=O)O)C(=O)O` [Example 61, ethylenediaminedisuccinic acid], the “Compression strength” value in series [2] (setting [5]) is 0.9 Kg/cm^2.

In the case of `O=C([O-])C[C@H](NCCCN[C@@H](CC(=O)[O-])C(=O)[O-])C(=O)[O-].[Fe+3].[NH4+]` [Example 82, iron ammonium (S,S)-1,3-propanediaminedisuccinate], in series [2] (setting [5]), the “Compression strength” value is listed as 1.1 Kg/cm^2.

Take “iron salt of anthranilic acid-N,N-diacetic acid [compound 15, reference compound]”: the “Compression strength” value in series [2] (setting [4]) stood at 2.5 Kg/cm^2.

In the case of `O=C(O)CN(CCS(=O)(=O)O)CC(=O)O` [Example 40, taurine-N,N-diacetic acid], the “Compression strength” value in series [2] (setting [3]) worked out at 0.9 Kg/cm^2.

Take `O=C([O-])CN(CC(=O)[O-])c1ccccc1C(=O)[O-].[Fe+3]` [Example 44, iron salt of anthranilic acid-N,N-diacetic acid]: in series [2] (setting [4]), the “Compression strength” value is listed as 1.0 Kg/cm^2.

Turning to `O=C([O-])CN(CCS(=O)(=O)[O-])CC(=O)[O-].[Na+].[Na+].[Na+]` [Example 28, trisodium salt of taurine-N,N-diacetic acid], the “Compression strength” value in series [2] (setting [4]) turned out to be 1.3 Kg/cm^2.

Regarding `O=C([O-])C[C@H](NCCCN[C@@H](CC(=O)[O-])C(=O)[O-])C(=O)[O-].[Na+].[Na+].[Na+].[Na+]` [Example 49, tetrasodium (S,S)-1,3-propanediaminedisuccinate], the “Compression strength” value in series [2] (setting [5]) is given as 1.3 Kg/cm^2.

For the compound `O=C([O-])C[C@H](NCCN[C@@H](CC(=O)[O-])C(=O)[O-])C(=O)[O-].[Na+].[Na+].[Na+].[Na+]` [compound 17, tetrasodium (S,S)-ethylenediaminedisuccinate, reference compound], in series [2] (setting [4]), the “Compression strength” value is 2.9 Kg/cm^2.

Regarding `O=C(O)CN[C@@H](CC(=O)O)C(=O)O` [Example 17, (S)-aspartic acid-N-monoacetic acid], in series [2] (setting [4]), the “Compression strength” value is reported as 0.9 Kg/cm^2.

On to `O=C([O-])C[C@@H](C(=O)[O-])N(CC(=O)[O-])CC(=O)[O-].[Na+].[Na+].[Na+].[Na+]` [compound 3, tetrasodium salt of (S)-aspartic acid-N,N-diacetic acid, reference compound], for which the “Compression strength” value in series [2] (setting [4]) is on record as 3.2 Kg/cm^2.

On to `O=C([O-])CC(NCCCNC(CC(=O)[O-])C(=O)[O-])C(=O)[O-].[Na+].[Na+].[Na+].[Na+]` (centres unmarked) [compound 18, tetrasodium 1,3-propanediaminedisuccinate, reference compound], for which the “Compression strength” value in series [2] (setting [4]) is on record as 3.0 Kg/cm^2.
